These results are taken from patent US5444055A, “17-hydroxyiminomethyl-5-β, 14 β-androstane derivatives active on the cardiovascular system, processes for their preparation and pharmaceutical compositions containing same” (Sigma-Tau Industrie Farmaceutiche Riunite S.p.A., priority 1992, dated 1995).

Test [1] deals with T1, Na^+,K^+ -ATPase (Homo sapiens, UniProt P05023). The test can be described thus: displacement of specific ^3 H-ouabain binding from purified Na^+,K^+ -ATPase receptor.
Test [2] addresses T1, Na^+,K^+ -ATPase. The test can be described thus: inhibition of the activity of purified Na^+,K^+ -ATPase (hydrolysis of ^32 P-ATP). It is filed as biochemical.
Test [3] concerns Na^+,K^+ -ATPase. The settings on record: literature report; cited from earlier work.
The conditions of test [4]: literature report; cited from earlier work.
Test [5] can be described thus: prevention of development of hypertension, 5-week oral treatment, tail cuff SBP and HR. It counts as in vivo. The settings on record: 5 week-treatment, 20 mg/Kg/os daily in Methocel 0.5% w/v, 7 rats (MHS); for SBP: controls 173 +/- 4.5; for HR: controls 382 +/- 8.3.
[6] abbreviates: read-out: Binding ^3 H-Ouab. Displacement -log IC50 (converted).
[7] abbreviates: purified Na^+,K^+ -ATPase, ^32 P-ATP hydrolysis, read-out: Inhibitory Activity -log IC50 (converted).

The term IC50 denotes the concentration that gives 50% inhibition. Regarding `CN(C)CCCO/N=C/[C@H]1CC[C@]2(O)[C@@H]3CC[C@@H]4C[C@@H](O)CC[C@]4(C)[C@H]3CC[C@]12C` [Comp. I-af, (E)-17β-(3-Dimethylaminopropoxyimino)methyl-5.β-androstane-3β,14β-diol], the IC50 is 158 nM at Na^+,K^+ -ATPase [1] (setting [6]) and 2510 nM against Na^+,K^+ -ATPase [2].

For `CN(C)CCO/N=C/[C@H]1CC[C@]2(O)[C@@H]3CC[C@@H]4CC(=NNC(=N)N)CC[C@]4(C)[C@H]3CC[C@]12C` (mixture of isomers) [Comp. I-aw, 3-((EZ)-Guanidinoimino)-17β-((E)-2-dimethylaminoethoxyiminomethyl)-5β-androstane-14β-ol], the IC50 is 79.4 nM on Na^+,K^+ -ATPase [1] (setting [6]) and 1260 nM at Na^+,K^+ -ATPase [2] (setting [7]).

In the case of `C[C@]12CC[C@H](O)C[C@H]1CC[C@@H]1[C@@H]2CC[C@]2(C)[C@@H](C=NNC(=N)N)CC[C@]12O` [17β-guanidinoiminomethyl-5β-androstane-3β,14β-diol], the “inhibition of Na^+,K^+-ATPase” value in the test on Na^+,K^+ -ATPase [3] is given as “weak inhibitors of Na^+,K^+ -ATPase”. Also, the positive inotropic activity result in test [4] is given as “weak positive inotropic agents”.

Turning to `C[C@]12CC[C@H](O)C[C@H]1CC[C@@H]1[C@@H]2CC[C@]2(C)[C@@H](/C=N/OCCN)CC[C@]12O` [Comp. I-ab, (E)-17β-(2-Aminoethoxyimino)methyl-5β-androstane-3β-diol], the IC50 at Na^+,K^+ -ATPase [1] (setting [6]) is 79.4 nM; at Na^+,K^+ -ATPase [2] (setting [7]), 1580 nM.

`C/C(=N\OCCN(C)C)[C@H]1CC[C@]2(O)[C@@H]3CC[C@@H]4C[C@@H](O)CC[C@]4(C)[C@H]3CC[C@]12C` [Comp. I-ai, (E)-20-(2-Dimethylaminoethoxyimino)-5β-pregnane-3β,14β-diol]: the values for the IC50 at Na^+,K^+ -ATPase [1] (setting [6]) and at Na^+,K^+ -ATPase [2] (setting [7]) were 79.4 nM and 2000 nM, respectively.

In the case of `CN(C)CCO/N=C/[C@H]1CC[C@]2(O)[C@@H]3CC[C@@H]4C[C@@H](OCCCN)CC[C@]4(C)[C@H]3CC[C@]12C` [Comp. I-as, (E)-3β-(3-Aminopropoxy)-17β-(2-dimethylaminoethoxyimino)methyl-5β-androstane-14β-ol], the IC50 at Na^+,K^+ -ATPase [1] (setting [6]) was 39.8 nM. Besides, the IC50 at Na^+,K^+ -ATPase [2] (setting [7]) was 316 nM. For the same molecule, in test [5], the SBP is 149 +/- 7.9 mm Hg and the HR is 377 +/- 9.5 beats/min.

`C[C@]12CC[C@H](O)C[C@H]1CC[C@@H]1[C@@H]2CC[C@]2(C)[C@@H](/C=N/OCCNC(=N)N)CC[C@]12O` [Comp. I-ag, (E)-17β-(2-Guanidinoethoxyimino)methyl-5β-androstane-3β,14β-diol]: the IC50 was 158 nM at Na^+,K^+ -ATPase [1] (setting [6]) and 3160 nM on Na^+,K^+ -ATPase [2].

In the case of `CN(C)CCO/N=C/[C@H]1CC[C@]2(O)[C@@H]3CC[C@@H]4C[C@@H](O)CC[C@]4(C)[C@H]3CC[C@]12C` [Comp. I-ad, (E)-17β-(2-Dimethylaminoethoxyimino)methyl-5β-androstane-3β,14 β-diol], the 50% inhibitory concentration (IC50) on Na^+,K^+ -ATPase [1] (setting [6]) is 39.8 nM; against Na^+,K^+ -ATPase [2], 1260 nM. Further, in test [5], the SBP is on record as 148 +/- 4.0 mm Hg. Besides, in test [5], the HR was 375 +/- 10.5 beats/min.

Regarding `CN(C)CCO/N=C/[C@H]1CC[C@]2(O)[C@@H]3CC[C@@H]4C[C@@H](OCCN5CCCC5)CC[C@]4(C)[C@H]3CC[C@]12C` [Comp. I-au, (E)-3β-(2-(1-Pyrrolidinyl)ethoxy)-17β-(2-dimethylaminoethoxyimino)methyl-5β-androstane-3β,14β-diol], the IC50 was 50.1 nM on Na^+,K^+ -ATPase [1] and 398 nM on Na^+,K^+ -ATPase [2] (setting [7]).

In the case of `CN(C)CCO/N=C/[C@@]1(O)CC[C@]2(O)[C@@H]3CC[C@@H]4C[C@@H](O)CC[C@]4(C)[C@H]3CC[C@]12C` [Comp. I-ak, (E)-17β-(2-Dimethylaminoethoxyimino)methyl-5β-androstane-3β,14β,17α-triol], the IC50 is 1000 nM on Na^+,K^+ -ATPase [1] (setting [6]) and 39800 nM at Na^+,K^+ -ATPase [2] (setting [7]).

For the molecule `C[C@]12CC[C@H](O)C[C@H]1CC[C@@H]1[C@@H]2CC[C@]2(C)C(=NNC(=N)N)CC[C@]12O` [17-guanidinoimino-5β-androstane-3β,14β-diol], the “inhibition of Na^+,K^+-ATPase” value with Na^+,K^+ -ATPase [3] is reported as “weak inhibitors of Na^+,K^+ -ATPase”. Moreover, in test [4], the positive inotropic activity entry was “weak positive inotropic agents”.

As to `CO/N=C/[C@H]1CC[C@]2(O)[C@@H]3CC[C@@H]4C[C@@H](O)CC[C@]4(C)[C@H]3CC[C@]12C` [Comp. I-aa, (E)-17β-Methoxyiminomethyl-5β-androstane-3β,14β-diol], the IC50 on Na^+,K^+ -ATPase [1] (setting [6]) was 3980 nM; against Na^+,K^+ -ATPase [2], 31600 nM.

As for `CO/N=C/[C@H]1CC[C@]2(O)[C@@H]3CC[C@@H]4C[C@@H](OCCCN)CC[C@]4(C)[C@H]3CC[C@]12C` [Comp. I-aq, (E)-3β-(3-Aminopropoxy)-17β-methoxyiminomethyl-5β-androstane-14β-ol], the concentration for half-maximal inhibition (IC50) is 631 nM on Na^+,K^+ -ATPase [1] (setting [6]) and 15800 nM at Na^+,K^+ -ATPase [2].

Consider `C[C@]12CC[C@H](O)C[C@H]1CC[C@@H]1[C@@H]2CC[C@]2(C)[C@@H](C=NO)CC[C@]12O` [17β-hydroxyiminomethyl-5β-androstane-3b,14b-diol], for which, in the test with Na^+,K^+ -ATPase [3], the “inhibition of Na^+,K^+-ATPase” value was “not to inhibit Na^+,K^+ -ATPase”.

Turning to `CO/N=C/[C@H]1CC[C@]2(O)[C@@H]3CC[C@@H]4C[C@@H](OCCN5CCCC5)CC[C@]4(C)[C@H]3CC[C@]12C` [Comp. I-ar], the IC50 at Na^+,K^+ -ATPase [1] (setting [6]) is 794 nM. Besides, the IC50 on Na^+,K^+ -ATPase [2] (setting [7]) is 15800 nM. Also, in test [5], the SBP is given as 158 +/- 4.0 mm Hg and the HR was 385 +/- 6.4 beats/min.

`CN(C)CCON=C1CC[C@@]2(C)[C@H](CC[C@@H]3[C@@H]2CC[C@]2(C)[C@@H](/C=N/OCCN(C)C)CC[C@]32O)C1` (mixture of isomers) [Comp. I-az]: the IC50 is 126 nM at Na^+,K^+ -ATPase [1] (setting [6]) and 2000 nM on Na^+,K^+ -ATPase [2] (setting [7]).
